How the values were obtained:
[1] = target: Multidrug resistance-associated protein 1 (Homo sapiens, UniProt P33527); assay: TP_TRANSPORTER: inhibition of DNP-SG uptake (DNP-SG: 10 uM, Glutathione S-conjugate of ethacrynic acid: 10uM) in membrane vesicles from S1(MRP) cells; type: functional, cell membranes, Membrane vesicle; parameters: scale not given: the % may be the effect or the level left
[2] = target: Multidrug resistance-associated protein 1 (MRP1) (Homo sapiens, UniProt P33527); assay: TP_TRANSPORTER: inhibition of DNP-SG uptake (DNP-SG: 10 uM, 4-Glutathionyl cyclophosphamide: 1000uM) in membrane vesicles from S1(MRP) cells; type: functional, cell membranes, Membrane vesicle; parameters: scale not given: the % may be the effect or the level left; settings: probe DNP-SG, read-out: Activity
Sequence of Multidrug resistance-associated protein 1 (MRP1) (P33527 whole entry): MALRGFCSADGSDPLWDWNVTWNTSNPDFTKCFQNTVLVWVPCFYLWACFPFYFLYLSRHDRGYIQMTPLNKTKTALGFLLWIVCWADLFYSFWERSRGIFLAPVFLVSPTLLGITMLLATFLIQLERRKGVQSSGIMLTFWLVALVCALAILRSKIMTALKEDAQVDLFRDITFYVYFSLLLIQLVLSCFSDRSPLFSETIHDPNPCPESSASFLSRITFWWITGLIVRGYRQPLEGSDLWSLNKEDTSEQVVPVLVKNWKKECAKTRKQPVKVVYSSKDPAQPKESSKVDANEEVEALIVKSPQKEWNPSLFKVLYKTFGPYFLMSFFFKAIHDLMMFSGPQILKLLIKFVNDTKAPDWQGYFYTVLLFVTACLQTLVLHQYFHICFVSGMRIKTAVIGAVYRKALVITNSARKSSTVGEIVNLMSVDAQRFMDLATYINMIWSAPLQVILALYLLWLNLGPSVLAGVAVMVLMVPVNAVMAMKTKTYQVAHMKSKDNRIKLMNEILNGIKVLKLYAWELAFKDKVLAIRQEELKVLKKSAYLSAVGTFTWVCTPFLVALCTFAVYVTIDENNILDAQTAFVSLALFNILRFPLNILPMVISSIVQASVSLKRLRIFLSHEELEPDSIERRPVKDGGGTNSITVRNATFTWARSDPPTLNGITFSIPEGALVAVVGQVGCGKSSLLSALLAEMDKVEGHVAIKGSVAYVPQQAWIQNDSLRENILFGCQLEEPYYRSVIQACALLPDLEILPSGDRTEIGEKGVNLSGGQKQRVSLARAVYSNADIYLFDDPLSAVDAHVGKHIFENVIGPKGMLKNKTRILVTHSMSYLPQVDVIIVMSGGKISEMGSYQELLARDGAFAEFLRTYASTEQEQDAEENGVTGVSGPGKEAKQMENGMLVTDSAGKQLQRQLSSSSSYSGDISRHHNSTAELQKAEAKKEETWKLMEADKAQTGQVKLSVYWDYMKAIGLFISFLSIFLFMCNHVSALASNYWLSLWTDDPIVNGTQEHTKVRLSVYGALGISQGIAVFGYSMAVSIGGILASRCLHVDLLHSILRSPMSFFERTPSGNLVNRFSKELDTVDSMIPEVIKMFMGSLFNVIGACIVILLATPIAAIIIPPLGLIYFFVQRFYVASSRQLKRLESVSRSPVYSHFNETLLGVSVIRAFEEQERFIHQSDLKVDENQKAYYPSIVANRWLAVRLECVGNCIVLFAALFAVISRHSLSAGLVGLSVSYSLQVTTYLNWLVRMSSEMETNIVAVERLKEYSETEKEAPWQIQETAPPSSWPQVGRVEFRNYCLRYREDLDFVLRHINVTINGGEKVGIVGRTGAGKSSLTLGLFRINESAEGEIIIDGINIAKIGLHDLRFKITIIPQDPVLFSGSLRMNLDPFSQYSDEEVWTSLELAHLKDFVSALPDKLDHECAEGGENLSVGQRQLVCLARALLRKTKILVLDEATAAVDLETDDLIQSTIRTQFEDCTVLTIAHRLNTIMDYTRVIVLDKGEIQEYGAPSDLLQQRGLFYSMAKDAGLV

Sequence of Multidrug resistance-associated protein 1 (P33527 whole entry): as above

SMILES	Activity [1]	activity at 1000 µM [2]
CCC(CSC[C@@H](NC(=O)CC[C@H](N)C(=O)O)C(=O)NCC(=O)O)C(=O)c1ccc(OCC(=O)O)c(Cl)c1Cl (some centres not stated)	4%	
NC(CCC(=O)NC(CSC1CCOP(=O)(N(CCCl)CCCl)N1)C(=O)NCC(=O)O)C(=O)O (configuration not stated)		44%

From ChEMBL document CHEMBL2074303, “Transport of the glutathione conjugate of ethacrynic acid by the human multidrug resistance protein MRP” (FEBS Lett, 1996)
